Here are results for 1 substance from patent US12492229B2, “Antimicrobial peptides” (Donald Danforth Plant Science Center, priority 2019, dated 2025).

In one experiment the test system is Botrytis cinerea. It counts as cell-based. To be noted: Pichia pastoris-expressed peptide.
A further experiment deals with Fusarium graminearum. It counts as cell-based. To be noted: Pichia pastoris-expressed peptide.
For another experiment, the system named is Phytophthora capsici. It counts as cell-based. The conditions noted are these: Pichia pastoris-expressed peptide.
A further experiment deals with Fusarium oxysporum. It counts as cell-based.
In a further experiment the test system is Alternaria brassicicola. It counts as cell-based. The conditions noted are these: Pichia pastoris-expressed peptide.
A further experiment concerns A. rhizogenes. The experiment is described as follows: In vitro antibacterial activity. The format is cell-based, Agrobacterium rhizogenes.
In a further experiment the test system is A. tumefaciens. The experiment is described as follows: In vitro antibacterial activity. The format is cell-based.

For orientation: IC50 means the concentration needed to halve the response being measured. Low values mean greater potency, high ones weaker potency. “SbDef1: endogenous Sorghum bicolor defensin antifungal peptide, 49 amino acids, SEQ ID NO: 1; expressed in Pichia pastoris (VHVCTMRNKFFHGPCMSNKNCAASCIQHRIGGGGYCSSRRQICKCTLQC; Sorghum bicolor)”: the IC50 in the experiment with Botrytis cinerea lay in the range of 1500 to 2000 nM; with Fusarium graminearum it was 2000 to 3000 nM; in the experiment on Phytophthora capsici it was 2000 to 3000 nM; in the experiment with Fusarium oxysporum, 200 to 500 nM; in the experiment with Alternaria brassicicola, 1500 to 2000 nM. In addition, the “MLC (minimal lethal concentration)” value is 3 µM with Botrytis cinerea; 6 µM with Fusarium graminearum; 6 µM in the experiment on Phytophthora capsici; 0.75 µM with Fusarium oxysporum; 6 µM in the experiment on Alternaria brassicicola. Also, the antibacterial activity result in the experiment with A. rhizogenes and with A. tumefaciens was “does not exhibit any antibacterial activity” each time.
